Laboratory results as given in ChEMBL document CHEMBL1201862, “PubChem BioAssay data set” (2004).
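Briefly, cells in 96-well plates were exposed to five compound concentrations for 48 h, and endpoints were estimated by linear interpolation. Abbreviation: GI50, concentration required for 50% inhibition of growth.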 The source made the active and inactive calls. Cut-off read from the data, not from the text of the source: active = GI50 up to about 1.1 µM and inactive = higher.

How the values were obtained:
Test in all cases: growth of human tumour cells (NCI), 48 h
EKVX = test system: EKVX
SF-295 = test system: SF-295
OVCAR-3 = test system: OVCAR-3
MDA-MB-435 = test system: MDA-MB-435
SR = test system: SR
HL-60 = test system: HL-60
K562 = test system: K562
A549 = test system: A549
MOLT-4 = test system: MOLT-4
SN12C = test system: SN12C
T47D = test system: T47D
SF-268 = test system: SF-268
NCI-H23 = test system: NCI-H23
M14 = test system: M14
DU-145 = test system: DU-145
TK-10 = test system: TK-10
HT-29 = test system: HT-29
LOX IMVI = test system: LOX IMVI
BT-549 = test system: BT-549
SW-620 = test system: SW-620
HCT-15 = test system: HCT-15
MCF7 = test system: MCF7
NCI/ADR-RES = test system: NCI/ADR-RES
UACC-62 = test system: UACC-62
Malme-3M = test system: Malme-3M
UACC-257 = test system: UACC-257
U-251 = test system: U-251
MDA-MB-231 = test system: MDA-MB-231
ACHN = test system: ACHN
OVCAR-5 = test system: OVCAR-5
Hs-578T = test system: Hs-578T
SK-OV-3 = test system: SK-OV-3
CCRF-CEM = test system: CCRF-CEM
HOP-92 = test system: HOP-92
HCC 2998 = test system: HCC 2998
NCI-H460 = test system: NCI-H460
A498 = test system: A498
IGROV-1 = test system: IGROV-1
MDA-N = test system: MDA-N
OVCAR-8 = test system: OVCAR-8
KM12 = test system: KM12
SNB-19 = test system: SNB-19
786-0 = test system: 786-0
SK-MEL-5 = test system: SK-MEL-5
SK-MEL-2 = test system: SK-MEL-2
SK-MEL-28 = test system: SK-MEL-28
PC-3 = test system: PC-3
RPMI-8226 = test system: RPMI-8226
COLO 205 = test system: COLO 205
CAKI-1 = test system: CAKI-1
OVCAR-4 = test system: OVCAR-4
UO-31 = test system: UO-31
NCI-H522 = test system: NCI-H522
SF-539 = test system: SF-539
HOP-62 = test system: HOP-62
HCT-116 = test system: HCT-116
NCI-H226 = test system: NCI-H226

COC(=O)/C=C/c1cc(OC)c2oc(-c3ccc(OC)c(OC)c3)c(C(=O)OC)c2c1
GI50 (EKVX): > 100 µM (inactive) | GI50 (SF-295): > 100 µM (inactive) | GI50 (OVCAR-3): > 100 µM (inactive) | GI50 (MDA-MB-435): > 100 µM (inactive) | GI50 (SR): > 100 µM (inactive) | GI50 (HL-60): > 100 µM (inactive) | GI50 (K562): > 100 µM (inactive) | GI50 (A549): > 100 µM (inactive) | GI50 (MOLT-4): > 100 µM (inactive) | GI50 (SN12C): > 100 µM (inactive) | GI50 (T47D): > 100 µM (inactive) | GI50 (SF-268): > 100 µM (inactive) | GI50 (NCI-H23): > 100 µM (inactive) | GI50 (M14): > 100 µM (inactive) | GI50 (DU-145): > 100 µM (inactive) | GI50 (TK-10): > 100 µM (inactive) | GI50 (HT-29): > 100 µM (inactive) | GI50 (LOX IMVI): > 100 µM (inactive) | GI50 (BT-549): > 100 µM (inactive) | GI50 (SW-620): > 100 µM (inactive) | GI50 (HCT-15): > 100 µM | GI50 (MCF7): > 100 µM (inactive) | GI50 (NCI/ADR-RES): > 100 µM (inactive) | GI50 (UACC-62): > 100 µM (inactive) | GI50 (Malme-3M): > 100 µM (inactive) | GI50 (UACC-257): > 100 µM (inactive) | GI50 (U-251): > 100 µM (inactive) | GI50 (MDA-MB-231): > 100 µM (inactive) | GI50 (ACHN): > 100 µM (inactive) | GI50 (OVCAR-5): > 100 µM (inactive) | GI50 (Hs-578T): > 100 µM (inactive) | GI50 (SK-OV-3): > 100 µM (inactive) | GI50 (CCRF-CEM): > 100 µM (inactive) | GI50 (HOP-92): > 100 µM (inactive) | GI50 (HCC 2998): > 100 µM (inactive) | GI50 (NCI-H460): > 100 µM (inactive) | GI50 (A498): > 100 µM (inactive) | GI50 (IGROV-1): > 100 µM (inactive) | GI50 (MDA-N): > 100 µM (inactive) | GI50 (OVCAR-8): > 100 µM (inactive) | GI50 (KM12): > 100 µM (inactive) | GI50 (SNB-19): > 100 µM (inactive) | GI50 (786-0): > 100 µM (inactive) | GI50 (SK-MEL-5): > 100 µM (inactive) | GI50 (SK-MEL-2): > 100 µM (inactive) | GI50 (SK-MEL-28): > 100 µM (inactive) | GI50 (PC-3): > 100 µM (inactive) | GI50 (RPMI-8226): > 100 µM (inactive) | GI50 (COLO 205): > 100 µM (inactive) | GI50 (CAKI-1): > 100 µM (inactive) | GI50 (OVCAR-4): > 100 µM (inactive) | GI50 (UO-31): > 100 µM (inactive)

OCCCc1cc(O)c2c(c1)C(CO)C(c1ccc(O)c(O)c1)O2 (centres undefined)
GI50 (EKVX): > 100 µM (inactive) | GI50 (SF-295): > 100 µM (inactive) | GI50 (OVCAR-3): > 100 µM (inactive) | GI50 (MDA-MB-435): > 100 µM (inactive) | GI50 (SR): > 100 µM (inactive) | GI50 (HL-60): > 100 µM (inactive) | GI50 (K562): > 100 µM (inactive) | GI50 (A549): > 100 µM (inactive) | GI50 (MOLT-4): > 100 µM (inactive) | GI50 (SN12C): > 100 µM (inactive) | GI50 (T47D): 80.2 µM (inactive) | GI50 (SF-268): > 100 µM (inactive) | GI50 (NCI-H23): > 100 µM (inactive) | GI50 (M14): 76.6 µM (inactive) | GI50 (DU-145): > 100 µM (inactive) | GI50 (TK-10): > 100 µM (inactive) | GI50 (HT-29): > 100 µM (inactive) | GI50 (LOX IMVI): > 100 µM (inactive) | GI50 (BT-549): > 100 µM (inactive) | GI50 (SW-620): > 100 µM (inactive) | GI50 (HCT-15): > 100 µM | GI50 (MCF7): > 100 µM (inactive) | GI50 (NCI/ADR-RES): > 100 µM (inactive) | GI50 (UACC-62): > 100 µM (inactive) | GI50 (Malme-3M): > 100 µM (inactive) | GI50 (UACC-257): > 100 µM (inactive) | GI50 (NCI-H522): 48.8 µM (inactive) | GI50 (SF-539): > 100 µM (inactive) | GI50 (HOP-62): > 100 µM (inactive) | GI50 (U-251): > 100 µM (inactive) | GI50 (MDA-MB-231): > 100 µM (inactive) | GI50 (ACHN): > 100 µM (inactive) | GI50 (OVCAR-5): > 100 µM (inactive) | GI50 (Hs-578T): > 100 µM (inactive) | GI50 (SK-OV-3): > 100 µM (inactive) | GI50 (CCRF-CEM): > 100 µM (inactive) | GI50 (HOP-92): > 100 µM (inactive) | GI50 (HCC 2998): > 100 µM (inactive) | GI50 (NCI-H460): > 100 µM (inactive) | GI50 (A498): > 100 µM (inactive) | GI50 (IGROV-1): > 100 µM (inactive) | GI50 (MDA-N): > 100 µM (inactive) | GI50 (OVCAR-8): > 100 µM (inactive) | GI50 (KM12): > 100 µM (inactive) | GI50 (SNB-19): > 100 µM (inactive) | GI50 (HCT-116): > 100 µM (inactive) | GI50 (786-0): > 100 µM (inactive) | GI50 (SK-MEL-5): > 100 µM (inactive) | GI50 (SK-MEL-2): > 100 µM (inactive) | GI50 (SK-MEL-28): > 100 µM (inactive) | GI50 (PC-3): > 100 µM (inactive) | GI50 (NCI-H226): > 100 µM (inactive) | GI50 (RPMI-8226): > 10 µM (inactive) | GI50 (COLO 205): > 100 µM (inactive) | GI50 (CAKI-1): > 100 µM (inactive) | GI50 (OVCAR-4): > 10 µM (inactive) | GI50 (UO-31): > 100 µM (inactive)
